Here are results for 23 compounds from patent US10059701B2 (Merck Patent GmbH, priority 2015, dated 2018).

One test concerns the target T1, IRAK1 (Homo sapiens, UniProt P51617).
T1 construct: His-TEV-IRAK1 (194-712); His (N); TEV cleavage site (N)
The test is described as follows: IRAK1 enzymatic assay (ADP-Glo luminescence). Type of test: biochemical. As to conditions: purified human recombinant His-TEV-IRAK1 (194-712). The method in brief: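 Luminescent ADP-Glo read-out of ATP turnover by purified His-TEV-IRAK1 (194-712) at 0.3 μg/ml after a 2-hour RT reaction. Compounds, serially diluted from 10 μM to 0.5 nM, were preincubated with enzyme 15 minutes in Hepes pH 7.0 buffer with MgCl2, DTT, EGTA and Triton X-100.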
(In ADP-Glo the light output rises with the ADP produced.)

Another test addresses T2, IRAK4 (Homo sapiens, UniProt Q9NWZ3).
T2 construct: His-TEV-IRAK4 (1-460); His (N); TEV cleavage site (N)
T2 sequence (Q9NWZ3 1-460): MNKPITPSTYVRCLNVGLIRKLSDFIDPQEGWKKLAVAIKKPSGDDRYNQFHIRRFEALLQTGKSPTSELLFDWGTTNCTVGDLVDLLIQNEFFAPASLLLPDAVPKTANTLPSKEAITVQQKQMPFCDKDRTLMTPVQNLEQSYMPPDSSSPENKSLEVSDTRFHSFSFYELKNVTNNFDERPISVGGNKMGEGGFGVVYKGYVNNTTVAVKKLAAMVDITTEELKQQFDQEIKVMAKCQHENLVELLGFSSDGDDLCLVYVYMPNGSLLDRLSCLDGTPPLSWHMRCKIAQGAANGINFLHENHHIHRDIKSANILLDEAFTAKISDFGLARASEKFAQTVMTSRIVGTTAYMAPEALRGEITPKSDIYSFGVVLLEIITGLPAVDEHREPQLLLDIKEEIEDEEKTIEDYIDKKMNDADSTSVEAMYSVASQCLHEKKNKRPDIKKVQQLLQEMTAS
The test can be described thus: IRAK4 enzymatic assay (ADP-Glo luminescence). The note with it: purified human recombinant His-TEV-IRAK4 (1-460), ATP 2 μM. The test is classed as biochemical. The method in brief:
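ADP-Glo luminescence read-out after a 2 h RT kinase reaction with 2 μM ATP and 300 nM biotinylated STK1 peptide. Enzyme (His-TEV-IRAK4 1-460, 0.3 μg/ml) first incubated 15 min with serially diluted compounds (10 μM–0.5 nM) in 50 mM Hepes pH 7.0, 10 mM MgCl2, 5 mM MnCl2.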

Each structure is given as a SMILES string. A value given as a limit tells only on which side of the number the result lay.

T1 sequence (P51617 194-712): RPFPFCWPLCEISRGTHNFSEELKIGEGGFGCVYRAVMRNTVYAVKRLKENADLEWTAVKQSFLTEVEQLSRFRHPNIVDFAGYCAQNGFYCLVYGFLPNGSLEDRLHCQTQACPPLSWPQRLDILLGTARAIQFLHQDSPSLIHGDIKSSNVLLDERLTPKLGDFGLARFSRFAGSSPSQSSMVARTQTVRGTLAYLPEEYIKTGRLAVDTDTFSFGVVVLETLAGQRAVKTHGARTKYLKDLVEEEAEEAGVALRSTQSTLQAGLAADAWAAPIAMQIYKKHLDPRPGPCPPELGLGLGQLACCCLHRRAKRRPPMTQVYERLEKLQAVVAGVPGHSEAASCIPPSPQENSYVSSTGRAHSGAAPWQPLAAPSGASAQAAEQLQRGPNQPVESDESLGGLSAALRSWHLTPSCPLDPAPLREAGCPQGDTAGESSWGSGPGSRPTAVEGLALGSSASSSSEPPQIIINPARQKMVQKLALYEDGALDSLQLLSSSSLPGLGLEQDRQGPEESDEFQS

As a reminder, the IC50 is the concentration at which inhibition is half-maximal. As to `N#Cc1cc2c(cc1N1CCOCC1=O)[nH]/c(=N\C(=O)c1cccc(C(F)(F)F)c1)n2CCCO` [Compound 138, (E)-N-(6-cyano-1-(3-hydroxypropyl)-5-(3-oxomorpholino)-1H-benzo[d]imidazol-2(3H)-ylidene)-3-(trifluoromethyl)benzamide], the half-inhibitory concentration (IC50) at IRAK1 was over 1000 nM; at IRAK4 it was at most 100 nM.
In the same order, the values of `O=C(/N=c1\[nH]c2cc(N3CCOCC3=O)c(F)cc2n1CCCO)c1cccc(C(F)(F)F)c1` [Compound 139, (E)-N-(6-fluoro-1-(3-hydroxypropyl)-5-(3-oxomorpholino)-1H-benzo[d]imidazol-2(3H)-ylidene)-3-(trifluoromethyl)benzamide] are 100 to 1000 nM and at most 100 nM.
In the same order, the values of `O=C(/N=c1\[nH]c2cc(N3CCOCC3=O)c(F)cc2n1CCCO)c1cccc(C(F)F)c1` [Compound 140, (E)-3-(difluoromethyl)-N-(6-fluoro-1-(3-hydroxypropyl)-5-(3-oxomorpholino)-1H-benzo[d]imidazol-2(3H)-ylidene)benzamide] are 100 to 1000 nM and at most 100 nM.
Consider `O=C(/N=c1\[nH]c2cc(N3CCOCC3=O)c(Cl)cc2n1CCCO)c1cccc(C(F)(F)F)c1` [Compound 141, (E)-N-(6-chloro-1-(3-hydroxypropyl)-5-(3-oxomorpholino)-1H-benzo[d]imidazol-2(3H)-ylidene)-3-(trifluoromethyl)benzamide], for which the IC50 on IRAK1 is over 1000 nM; at IRAK4, at most 100 nM.
In the same order, the values of `O=C(/N=c1\[nH]c2cc(N3CCOCC3=O)c(Cl)cc2n1CCCO)c1cccc(C(F)F)c1` [Compound 142, (E)-N-(6-chloro-1-(3-hydroxypropyl)-5-(3-oxomorpholino)-1H-benzo[d]imidazol-2(3H)-ylidene)-3-(difluoromethyl)benzamide] are 100 to 1000 nM and at most 100 nM.
With `COc1cc2c(cc1N1CCOCC1=O)[nH]/c(=N\C(=O)c1cccc(C(F)(F)F)c1)n2[C@H](C)CCO` [Compound 143, (R,E)-N-(1-(4-hydroxybutan-2-yl)-6-methoxy-5-(3-oxomorpholino)-1H-benzo[d]imidazol-2(3H)-ylidene)-3-(trifluoromethyl)benzamide], the results for the IC50 on IRAK1 and at IRAK4 were 100 to 1000 nM and at most 100 nM, respectively.
In the case of `O=C(/N=c1\[nH]c2cc(N3CCCOC3=O)ccc2n1CC(F)CO)c1cccc(C(F)(F)F)c1` (stereo not shown) [Compound 145, (E)-N-(1-(2-fluoro-3-hydroxypropyl)-5-(2-oxo-1,3-oxazinan-3-yl)-1H-benzo[d]imidazol-2(3H)-ylidene)-3-(trifluoromethyl)benzamide], the IC50 on IRAK1 and at IRAK4 was at most 100 nM throughout.
Take `N#Cc1cccc(C(=O)/C=C2\Nc3cc(N4CCOCC4=O)ccc3N2CCCO)c1` [Compound 146, (E)-3-(2-(1-(3-hydroxypropyl)-5-(3-oxomorpholino)-1H-benzo[d]imidazol-2(3H)-ylidene)acetyl)benzonitrile]: the IC50 at IRAK1 and at IRAK4 was 100 to 1000 nM throughout.
On to `O=C(/C=C1\Nc2cc(N3CCOCC3=O)ccc2N1CCCO)c1cccc(C(F)(F)F)n1` [Compound 147, (E)-4-(1-(3-hydroxypropyl)-2-(2-oxo-2-(6-(trifluoromethyl)pyridin-2-yl)ethylidene)-2,3-dihydro-1H-benzo[d]imidazol-5-yl)morpholin-3-one], for which the IC50 on IRAK1 is 100 to 1000 nM; at IRAK4, at most 100 nM.
`O=C(/C=C1\Nc2cc(N3CCOCC3=O)ccc2N1CCCO)c1cccc(Br)n1` [Compound 148, (E)-4-(2-(2-(6-bromopyridin-2-yl)-2-oxoethylidene)-1-(3-hydroxypropyl)-2,3-dihydro-1H-benzo[d]imidazol-5-yl)morpholin-3-one]: the IC50 on IRAK1 was 100 to 1000 nM; on IRAK4 it was at most 100 nM.
`O=C(/C=C1\Nc2cc(N3CCOCC3=O)ccc2N1CCCO)c1ccc2ccccc2n1` [Compound 149, (E)-4-(1-(3-hydroxypropyl)-2-(2-oxo-2-(quinolin-2-yl)ethylidene)-2,3-dihydro-1H-benzo[d]imidazol-5-yl)morpholin-3-one]: the concentration for half-maximal inhibition (IC50) on IRAK1 and on IRAK4 was over 1000 nM throughout.
Take `NC(=O)[C@H]1CC[C@@H](n2/c(=N/C(=O)c3cccc(C(F)(F)F)c3)[nH]c3cc(N4CCOCC4=O)ccc32)CC1` [Compound 150, (E)-N-(1-((1s,4s)-4-carbamoylcyclohexyl)-5-(3-oxomorpholino)-1H-benzo[d]imidazol-2(3H)-ylidene)-3-(trifluoromethyl)benzamide]: the IC50 at IRAK1 was 100 to 1000 nM; at IRAK4, at most 100 nM.
`O=C(/N=c1\[nH]c2cc(N3CCOCC3=O)ccc2n1CCCO)c1cccc(SC(F)(F)F)c1` [Compound 151, (E)-N-(1-(3-hydroxypropyl)-5-(3-oxomorpholino)-1H-benzo[d]imidazol-2(3H)-ylidene)-3-((trifluoromethyl)thio)benzamide]: the IC50 on IRAK1 and on IRAK4 was at most 100 nM each time.
As to `O=C(/N=c1\[nH]c2cc(N3CCOCC3=O)ccc2n1CCCO)c1cccc(S(=O)(=O)C(F)(F)F)c1` [Compound 152, (E)-N-(1-(3-hydroxypropyl)-5-(3-oxomorpholino)-1H-benzo[d]imidazol-2(3H)-ylidene)-3-((trifluoromethyl)sulfonyl)benzamide], the IC50 on IRAK1 and at IRAK4 was at most 100 nM in each case.
On to `Cn1ccc(-c2cccc(C(=O)/N=c3\[nH]c4cc(N5CCOCC5=O)ccc4n3CCCO)c2)cc1=O` [Compound 153, (E)-N-(1-(3-hydroxypropyl)-5-(3-oxomorpholino)-1H-benzo[d]imidazol-2(3H)-ylidene)-3-(1-methyl-2-oxo-1,2-dihydropyridin-4-yl)benzamide], for which the IC50 on IRAK1 and on IRAK4 was at most 100 nM throughout.
In the case of `O=C1C[C@H](n2/c(=N/C(=O)c3cccc(C(F)(F)F)c3)[nH]c3cc(N4CCCOC4=O)ccc32)CN1` [Compound 154, (S,E)-N-(5-(2-oxo-1,3-oxazinan-3-yl)-1-(5-oxopyrrolidin-3-yl)-1H-benzo[d]imidazol-2(3H)-ylidene)-3-(trifluoromethyl)benzamide], the IC50 on IRAK1 is over 1000 nM; at IRAK4, 100 to 1000 nM.
In the case of `O=C(/N=c1\[nH]c2cc(N3CCCOC3=O)ccc2n1CC1CCOCC1)c1cccc(C(F)(F)F)c1` [Compound 155, (E)-N-(5-(2-oxo-1,3-oxazinan-3-yl)-1-((tetrahydro-2H-pyran-4-yl)methyl)-1H-benzo[d]imidazol-2(3H)-ylidene)-3-(trifluoromethyl)benzamide], the IC50 was 100 to 1000 nM at IRAK1 and at most 100 nM at IRAK4.
In the same order, the values of `O=C(/N=c1\[nH]c2cc(N3CCCOC3=O)ccc2n1C1CC(F)(F)C1)c1cccc(C(F)(F)F)c1` [Compound 156, (E)-N-(1-(3,3-difluorocyclobutyl)-5-(2-oxo-1,3-oxazinan-3-yl)-1H-benzo[d]imidazol-2(3H)-ylidene)-3-(trifluoromethyl)benzamide] are 100 to 1000 nM and at most 100 nM.
On to `O=C(/N=c1\[nH]c2cc(N3CCCOC3=O)ccc2n1C1CCS(=O)(=O)C1)c1cccc(C(F)(F)F)c1` (stereo not shown) [Compound 157, (E)-N-(1-(1,1-dioxidotetrahydrothiophen-3-yl)-5-(2-oxo-1,3-oxazinan-3-yl)-1H-benzo[d]imidazol-2(3H)-ylidene)-3-(trifluoromethyl)benzamide], for which the IC50 at IRAK1 and at IRAK4 was at most 100 nM throughout.
Take `O=C(/N=c1\[nH]c2cc(N3CCCOC3=O)ccc2n1CC1COC1)c1cccc(C(F)(F)F)c1` [Compound 158, (E)-N-(1-(oxetan-3-ylmethyl)-5-(2-oxo-1,3-oxazinan-3-yl)-1H-benzo[d]imidazol-2(3H)-ylidene)-3-(trifluoromethyl)benzamide]: the IC50 is 100 to 1000 nM on IRAK1 and at most 100 nM on IRAK4.
In the case of `O=C(/N=c1\[nH]c2cc(N3CCCOC3=O)ccc2n1CC1COC1)c1cccc(C(F)F)c1` [Compound 159, (E)-3-(difluoromethyl)-N-(1-(oxetan-3-ylmethyl)-5-(2-oxo-1,3-oxazinan-3-yl)-1H-benzo[d]imidazol-2(3H)-ylidene)benzamide], the IC50 at IRAK1 is 100 to 1000 nM; at IRAK4, at most 100 nM.
With `O=C(/N=c1\[nH]c2cc(N3CCCOC3=O)ccc2n1CC1CCCCO1)c1cccc(C(F)F)c1` (stereo not shown) [Compound 160, (E)-3-(difluoromethyl)-N-(5-(2-oxo-1,3-oxazinan-3-yl)-1-((tetrahydro-2H-pyran-2-yl)methyl)-1H-benzo[d]imidazol-2(3H)-ylidene)benzamide], the IC50 at IRAK1 is 100 to 1000 nM; on IRAK4, at most 100 nM.
In the same order, the values of `N#Cc1cccc(C(=O)/N=c2\[nH]c3cc(N4CCCOC4=O)ccc3n2CC2CCCCO2)c1` (stereo not shown) [Compound 161, (E)-3-cyano-N-(5-(2-oxo-1,3-oxazinan-3-yl)-1-((tetrahydro-2H-pyran-2-yl)methyl)-1H-benzo[d]imidazol-2(3H)-ylidene)benzamide] are at most 100 nM and at most 100 nM.
